# Assays:
# Assay type in all cases: in vitro ADME, human
# [1] = in vitro; settings: human
# Description: (§1) A precise amount of FRLE reserve solution is diluted to concentrations of 50, 100, and 150 μg/mL, representing the low, medium, and high concentrations of FRLE. Additionally, solutions are prepared containing 0.100 μmoL/mL Verapamil (Ver), 0.099 μmoL/mL Cyclosporine A (CsA), and 0.025 μmoL/mL EGTA at low, medium, and high concentrations for bidirectional transport.
# (§2) Caco-2 cells are seeded at a density of 2.5 × 10^5 cells/mL, with 0.5 mL inoculated into each well of a Transwell® 12-well plate. After continuous culturing for 18 days, the cell model is established. Bidirectional transport experiments include AP→BL ([…], absorption transport) and BL→AP ([…], secretion transport).
# (§3) Taking absorption transport as an example: 0.5 mL of drug-containing Hank’s Balanced Salt Solution (HBSS) solution is added to the apical (AP) side (supply side), while 1.5 mL of blank solution is added to the basolateral (BL) side (receiving side). At time points 15, 30, 60, 90, 120, 150, and 180 min, 200 µL is drawn from the BL side and simultaneously supplemented with 200 µL of HBSS buffer. The samples are then evaporated in a water bath, re-dissolved in methanol, and centrifuged at 12,000 rpm for 10 min. The supernatant is taken and assayed under the conditions described in “Establishment of the determination method for euscaphic acid and tiliroside”. The effects of different times, concentrations, inhibitors, chelating agents, and pH values on the absorption characteristics of euscaphic acid and tiliroside in FRLE are investigated. The secretion transport procedure is identical to the absorption transport ([Artursson & Karlsson, 1991]).
# (§4) The side with the added blank solution is considered the receiving side, and the amount of drug in the receiving side is regarded as its absorption amount (Qr). In the A→B transport test, the amount of drug absorbed by the B-side chamber at any time point is denoted as (QrBi). In the B→A transport test, the amount of drug absorbed by the A-side chamber at any time point is (QrAi). The specific calculations are provided in the following formulas:
# (§5) A-B transport: QrBi = 0.2 × (Cr1 + Cr2 + Λ + Cr(i-1)) + 1.5 × Cri
# (§6) B-A transport: Qrdi = 0.2 × (Cr1 + Cr2 + Λ + Cr(i-1)) + 0.5 × Cdi
# (§7) In the formula, 1.5 represents the volume of the test solution added to the B-side chamber (mL), 0.5 represents the volume of the test solution added to the A-side chamber (mL), and 0.2 is the volume of each sample taken (mL). Cri is the actual concentration in the receiving chamber at the i-th time point (μg/mL). The apparent permeability coefficient Papp (cm/s) is calculated using the following formula ([Lu et al., 2020]):
# (§8) Papp=dQ/dt×1/A×C0 dQ/dt represents the amount of drug transported per unit of time (μg/s); A is the surface area of the 12-well Transwell® membrane (1.12 cm^2), and C0 is the initial concentration of the drug in the donor side ([…]) ([Qu et al., 2021]).
# (§9) Exhaust ratio (RB-A/A-B)) is calculated using the following formula: RB−A/A−B=Papp(B−A)/Papp(A−B)
# [2] = tested on: P-gp; experiment: in vitro; settings: human
# Description: as §1, §2, §3, §4, §5, §6, §7, §8, §9
# [3] = tested on: Caco-2 cells; experiment: in vitro
# Description: as §1, §2, §3, §4, §5, §6, §7, §8, §9
# [4] = tested on: Caco-2 cells; experiment: Evaluation of the Caco-2 cell model with fluorescein sodium as marker (Papp, monolayer integrity); settings: Caco-2 monolayer, four repeated measurements
# Description: The evaluation of the Caco-2 cell model primarily involves using fluorescein sodium as a marker. The cells are seeded in a 12-well cell plate (10^5 cells/well) and observed and photographed every two days under a fluorescence inverted microscope. The transepithelial electrical resistance (TEER) is measured using a resistance meter (Millipore Millicell ERS-2; Millipore Sigma, Darmstadt, Germany). […] Markers used for detection mainly include mannitol, inulin, and fluorescein sodium.
# [5] = Caco-2, Papp × 10^−4 (cm/s) (A→B)
# [6] = Caco-2, Papp × 10^−4 (cm/s) (B→A)
# [7] = Caco-2, pH 5, Papp × 10^−4 (cm/s) (A→B)
# [8] = Caco-2, pH 5, Papp × 10^−4 (cm/s) (B→A)
# [9] = Caco-2, pH 6, Papp × 10^−4 (cm/s) (A→B)
# [10] = Caco-2, pH 6, Papp × 10^−4 (cm/s) (B→A)
# [11] = Caco-2, pH 8, Papp × 10^−4 (cm/s) (A→B)
# [12] = Caco-2, pH 8, Papp × 10^−4 (cm/s) (B→A)
# [13] = Caco-2, pH 9, Papp × 10^−4 (cm/s) (A→B)
# [14] = Caco-2, pH 9, Papp × 10^−4 (cm/s) (B→A)
smiles,measurement,setting,value
O=C(/C=C/c1ccc(O)cc1)OC[C@H]1O[C@@H](Oc2c(-c3ccc(O)cc3)oc3cc(O)cc(O)c3c2=O)[C@H](O)[C@@H](O)[C@@H]1O [Tiliroside],Papp at 180 min,[1]; Caco-2,0.042 to 0.808 ×10⁻⁶ cm/s
same,"Papp A→B at 180 min, 50 μg/mL",[1]; [5],137 ± 2 ×10⁻⁶ cm/s
same,"Papp A→B at 180 min, 100 μg/mL",[1]; [5],176 ± 13 ×10⁻⁶ cm/s
same,"Papp A→B at 180 min, 150 μg/mL",[1]; [5],268 ± 9 ×10⁻⁶ cm/s
same,"Papp B→A at 180 min, 50 μg/mL",[1]; [6],129 ± 2 ×10⁻⁶ cm/s
same,"Papp B→A at 180 min, 100 μg/mL",[1]; [6],210 ± 4 ×10⁻⁶ cm/s
same,"Papp B→A at 180 min, 150 μg/mL",[1]; [6],283 ± 3 ×10⁻⁶ cm/s
same,"efflux ratio at 180 min, 50 μg/mL","[1]; Caco-2, RB→A/A→B",0.82 ± 0.04
same,"efflux ratio at 180 min, 100 μg/mL","[1]; Caco-2, RB→A/A→B",0.75 ± 0.07
same,efflux ratio at 180 min,"[1]; Caco-2, efflux ratio (RB→A/A→B)",< 1.5
same,"Papp A→B at 180 min, 50 μg/mL",[1]; [7],380 ± 9 ×10⁻⁶ cm/s
same,"Papp A→B at 180 min, 100 μg/mL",[1]; [7],409 ± 7 ×10⁻⁶ cm/s
same,"Papp A→B at 180 min, 150 μg/mL",[1]; [7],649 ± 8 ×10⁻⁶ cm/s
same,"Papp B→A at 180 min, 50 μg/mL",[1]; [8],448 ± 8 ×10⁻⁶ cm/s
same,"Papp B→A at 180 min, 100 μg/mL",[1]; [8],536 ± 14 ×10⁻⁶ cm/s
same,"Papp B→A at 180 min, 150 μg/mL",[1]; [8],718 ± 24 ×10⁻⁶ cm/s
same,"efflux ratio at 180 min, 50 μg/mL","[1]; Caco-2, pH 5, RB→A/A→B",1.18 ± 0.01
same,"efflux ratio at 180 min, 100 μg/mL","[1]; Caco-2, pH 5, RB→A/A→B",1.31 ± 0.02
same,"efflux ratio at 180 min, 150 μg/mL","[1]; Caco-2, pH 5, RB→A/A→B",1.11 ± 0.05
same,"Papp A→B at 180 min, 50 μg/mL",[1]; [9],473 ± 24 ×10⁻⁶ cm/s
same,"Papp A→B at 180 min, 100 μg/mL",[1]; [9],468 ± 14 ×10⁻⁶ cm/s
same,"Papp A→B at 180 min, 150 μg/mL",[1]; [9],618 ± 28 ×10⁻⁶ cm/s
same,"Papp B→A at 180 min, 50 μg/mL",[1]; [10],568 ± 24 ×10⁻⁶ cm/s
same,"Papp B→A at 180 min, 100 μg/mL",[1]; [10],614 ± 8 ×10⁻⁶ cm/s
same,"Papp B→A at 180 min, 150 μg/mL",[1]; [10],808 ± 15 ×10⁻⁶ cm/s
same,"efflux ratio at 180 min, 50 μg/mL","[1]; Caco-2, pH 6, RB→A/A→B",1.2 ± 0.11
same,efflux ratio at 180 min,"[1]; Caco-2, pH 6, RB→A/A→B value",~1
same,"Papp A→B at 180 min, 50 μg/mL",[1]; [11],86 ± 12 ×10⁻⁶ cm/s
same,"Papp A→B at 180 min, 100 μg/mL",[1]; [11],92 ± 17 ×10⁻⁶ cm/s
same,"Papp A→B at 180 min, 150 μg/mL",[1]; [11],96 ± 14 ×10⁻⁶ cm/s
same,"Papp B→A at 180 min, 50 μg/mL",[1]; [12],83 ± 600 ×10⁻⁶ cm/s
same,"Papp B→A at 180 min, 100 μg/mL",[1]; [12],88 ± 11 ×10⁻⁶ cm/s
same,"Papp B→A at 180 min, 150 μg/mL",[1]; [12],93 ± 18 ×10⁻⁶ cm/s
same,"efflux ratio at 180 min, 50 μg/mL","[1]; Caco-2, pH 8, RB→A/A→B",1.03 ± 0.01
same,"efflux ratio at 180 min, 100 μg/mL","[1]; Caco-2, pH 8, RB→A/A→B",1.04 ± 0.03
same,"Papp A→B at 180 min, 50 μg/mL",[1]; [13],45 ± 4 ×10⁻⁶ cm/s
same,"Papp A→B at 180 min, 100 μg/mL",[1]; [13],56 ± 24 ×10⁻⁶ cm/s
same,"Papp A→B at 180 min, 150 μg/mL",[1]; [13],66 ± 26 ×10⁻⁶ cm/s
same,"Papp B→A at 180 min, 50 μg/mL",[1]; [14],42 ± 15 ×10⁻⁶ cm/s
same,"Papp B→A at 180 min, 100 μg/mL",[1]; [14],54 ± 18 ×10⁻⁶ cm/s
same,"Papp B→A at 180 min, 150 μg/mL",[1]; [14],62 ± 21 ×10⁻⁶ cm/s
same,"efflux ratio at 180 min, 50 μg/mL","[1]; Caco-2, pH 9, RB→A/A→B",1.07 ± 0.06
same,"Papp A→B at 180 min, 50 μg/mL",[2]; [5],142 ± 2 ×10⁻⁶ cm/s
same,"Papp A→B at 180 min, 100 μg/mL",[2]; [5],180 ± 5 ×10⁻⁶ cm/s
same,"Papp A→B at 180 min, 150 μg/mL",[2]; [5],261 ± 6 ×10⁻⁶ cm/s
same,"Papp B→A at 180 min, 50 μg/mL",[2]; [6],156 ± 3 ×10⁻⁶ cm/s
same,"Papp B→A at 180 min, 100 μg/mL",[2]; [6],226 ± 9 ×10⁻⁶ cm/s
same,"Papp B→A at 180 min, 150 μg/mL",[2]; [6],276 ± 1 ×10⁻⁶ cm/s
same,"efflux ratio at 180 min, 50 μg/mL","[2]; Caco-2, RB→A/A→B",1.09 ± 0.03
same,"efflux ratio at 180 min, 100 μg/mL","[2]; Caco-2, RB→A/A→B",1.25 ± 0.06
same,"efflux ratio at 180 min, 150 μg/mL","[2]; Caco-2, RB→A/A→B",0.96 ± 0.02
same,P-gp substrate status,[3]; Caco-2,substrates of P-gp
same,absorption category from Papp,[3]; Caco-2,good absorption
same,transport mechanism,[3]; Caco-2,passive diffusion
same,Papp,"[3]; human, Caco-2, 180 min",greater than 10^−6
same,"RB→A/A→B ratios, range over all conditions","[3]; human, Caco-2, 180 min",0.75-1.31
same,RB→A/A→B,"[3]; human, Caco-2, 180 min, 100 μg/mL, pH 6",1.31 ± 0.05
same,RB→A/A→B,"[3]; human, Caco-2, 180 min, 100 μg/mL, pH 9",1.03 ± 0.04
same,RB→A/A→B,"[3]; human, Caco-2, 180 min, 150 μg/mL, pH 6",1.21 ± 0.15
same,RB→A/A→B,"[3]; human, Caco-2, 180 min, 150 μg/mL, pH 8",1.03 ± 0.05
same,RB→A/A→B,"[3]; human, Caco-2, 180 min, 150 μg/mL, pH 9",1.06 ± 0.05
"O=C([O-])c1ccccc1-c1c2ccc(=O)cc-2oc2cc([O-])ccc12.[Na+].[Na+] [fluorescein sodium, Fluorescein sodium]",Papp of fluorescein sodium,[4],4.06 ± 0.17 × 10^−7 cm/s
